Experimental data: the supplement of paper PMC10307832

Tests used:
Test in all cases: relative viability (nuclei count vs DMSO), 5 days (fraction); higher = more cells survive
Doramapimod + Bortezomib = compound: Cc1ccc(-n2nc(C(C)(C)C)cc2NC(=O)Nc2ccc(OCCN3CCOCC3)c3ccccc23)cc1 [Doramapimod] + CC(C)C[C@H](NC(=O)[C@H](Cc1ccccc1)NC(=O)c1cnccn1)B(O)O [Bortezomib] (partner 0.002 µM)
Procedure, shortened: (§1)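 Relative viability divides the nuclei count in treated wells by that in vehicle wells. Lung cancer cell lines were seeded in 1536-well plates, dosed by pin tool the next day, and fixed and stained after 5 days in one step with final 0.05% Triton X-100, 1% formaldehyde and 1 ug/ml Hoechst. Dosing was a single drug or a fixed anchor-drug dose plus five library-drug doses (not always all listed) in √10 steps, and values are medians of duplicate plates imaged at 4×.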

RAF265 + Foretinib = compound: Cn1c(Nc2ccc(C(F)(F)F)cc2)nc2cc(Oc3ccnc(-c4ncc(C(F)(F)F)[nH]4)c3)ccc21 [RAF265] + COc1cc2c(Oc3ccc(NC(=O)C4(C(=O)Nc5ccc(F)cc5)CC4)cc3F)ccnc2cc1OCCCN1CCOCC1 [Foretinib] (partner 0.25 µM)
Procedure, shortened: as §1

RAF265 + Lapatinib = compound: Cn1c(Nc2ccc(C(F)(F)F)cc2)nc2cc(Oc3ccnc(-c4ncc(C(F)(F)F)[nH]4)c3)ccc21 [RAF265] + CS(=O)(=O)CCNCc1ccc(-c2ccc3ncnc(Nc4ccc(OCc5cccc(F)c5)c(Cl)c4)c3c2)o1 [Lapatinib] (partner 2 µM)
Procedure, shortened: as §1

RAF265 + Crizotinib = compound: Cn1c(Nc2ccc(C(F)(F)F)cc2)nc2cc(Oc3ccnc(-c4ncc(C(F)(F)F)[nH]4)c3)ccc21 [RAF265] + C[C@@H](Oc1cc(-c2cnn(C3CCNCC3)c2)cnc1N)c1c(Cl)ccc(F)c1Cl [Crizotinib] (partner 1 µM)
Procedure, shortened: as §1

Row | Cell Line | relative viability (Doramapimod + Bortezomib; first compound 0.02 µM) | relative viability (Doramapimod + Bortezomib; first compound 0.06325 µM) | relative viability (Doramapimod + Bortezomib; first compound 0.2 µM) | relative viability (Doramapimod + Bortezomib; first compound 0.6325 µM) | relative viability (Doramapimod + Bortezomib; first compound 2 µM) | relative viability (RAF265 + Foretinib; first compound 0.01 µM) | relative viability (RAF265 + Foretinib; first compound 0.03162 µM) | relative viability (RAF265 + Foretinib; first compound 0.1 µM) | relative viability (RAF265 + Foretinib; first compound 0.3162 µM) | relative viability (RAF265 + Foretinib; first compound 1 µM) | relative viability (RAF265 + Lapatinib; first compound 0.01 µM) | relative viability (RAF265 + Lapatinib; first compound 0.03162 µM) | relative viability (RAF265 + Lapatinib; first compound 0.1 µM) | relative viability (RAF265 + Lapatinib; first compound 0.3162 µM) | relative viability (RAF265 + Lapatinib; first compound 1 µM) | relative viability (RAF265 + Crizotinib; first compound 0.01 µM) | relative viability (RAF265 + Crizotinib; first compound 0.03162 µM) | relative viability (RAF265 + Crizotinib; first compound 0.1 µM) | relative viability (RAF265 + Crizotinib; first compound 0.3162 µM) | relative viability (RAF265 + Crizotinib; first compound 1 µM)
1 | NCI-H23 | 1.01 | 1.07 | 1.06 | 1.11 | 1.04 | 0.741 | 0.847 | 0.739 | 0.724 | 0.442 | 1.2 | 0.87 | 0.75 | 0.545 | 0.409 | 0.623 | 0.502 | 0.473 | 0.388 | 0.248
2 | NCI-H596 | 0.994 | 1.13 | 1.21 | 1.24 | 1.02 | 0.739 | 0.929 | 0.866 | 0.691 | 0.626 | 1.09 | 1.09 | 1.11 | 0.897 | 0.743 | 0.933 | 0.938 | 0.962 | 0.924 | 0.711
3 | NCI-H1563 | 0.871 | 0.88 | 0.993 | 1.17 | 0.873 | 1.05 | 1 | 0.984 | 0.989 | 0.935 | 1.01 | 0.885 | 0.992 | 0.815 | 0.737 | 0.88 | 0.916 | 0.849 | 0.801 | 0.824
4 | NCI-H460 | 0.961 | 1.12 | 1.11 | 1.24 | 1.05 | 1.06 | 0.982 | 1.06 | 1.04 | 1.1 | 1.01 | 0.934 | 0.853 | – | 0.646 | 0.972 | 0.904 | 0.743 | – | 0.881
5 | HCC-366 | 1.02 | 1 | 1.09 | 1.14 | 1.01 | 0.99 | 0.841 | 0.9 | 0.996 | 0.914 | 1.03 | 1.08 | 1.23 | 1.02 | 1.05 | 0.487 | 0.473 | 0.739 | 0.626 | 0.404
6 | NCI-H2085 | 1.03 | 1 | 0.952 | 1.06 | 0.945 | 0.859 | 0.929 | 0.957 | 0.987 | 1.06 | 0.777 | 0.709 | 0.806 | 0.843 | 0.717 | 0.696 | 0.886 | 0.858 | 1.05 | 0.806
7 | PC-14 | 0.968 | 0.845 | 0.778 | 1.01 | 0.81 | 0.969 | 1.01 | 0.928 | – | 0.817 | 0.339 | 0.331 | 0.403 | – | 0.383 | 0.872 | 0.818 | 0.995 | – | 0.68
8 | HOP-62 | 0.594 | 0.97 | 1.15 | 0.468 | 0.703 | 1.14 | 0.979 | 0.973 | 1.04 | 0.852 | 1.12 | – | 0.934 | 1.05 | 0.792 | 0.972 | – | 0.714 | 0.772 | 0.629
9 | NCI-H2087 | 0.931 | 0.866 | 0.79 | 0.771 | 0.768 | 0.967 | 1.1 | 0.938 | 0.797 | 0.663 | 0.964 | 0.874 | 0.837 | 0.833 | 0.684 | 0.71 | 0.7 | 0.818 | 0.637 | 0.692
10 | PC-3 [JPC-3] | 0.909 | 0.926 | 0.832 | 0.939 | 0.943 | 1.04 | 1.07 | 1.12 | – | 0.595 | 0.423 | 0.471 | 0.475 | 0.38 | 0.36 | 0.989 | 0.986 | 1.06 | 0.417 | 0.63
11 | H3255 | 0.788 | 0.883 | 0.833 | 0.619 | 0.668 | 0.88 | 0.88 | 0.847 | – | 0.55 | 0.254 | 0.248 | 0.26 | – | 0.17 | 0.928 | 0.83 | 1.12 | – | 0.671
12 | EMC-BAC-2 | 1.12 | 1.12 | 1.03 | 1.15 | 0.961 | 1.09 | 0.741 | 0.753 | 0.685 | 0.276 | 0.908 | 0.856 | 0.857 | 0.993 | 0.449 | 0.747 | 0.685 | 0.617 | 0.501 | 0.234
13 | CAL-12T | 1.01 | 1.11 | 1.16 | 1 | 0.818 | 1.26 | 1.12 | 1.01 | 0.924 | 0.746 | 0.68 | 0.653 | 0.825 | 0.598 | 0.449 | 0.66 | 0.456 | 0.638 | 0.441 | 0.298
14 | NCI-H650 | 0.882 | 1.11 | 1.03 | 0.737 | 0.874 | 1.1 | 0.965 | 0.974 | 0.814 | 0.484 | 0.959 | 0.849 | 0.922 | 0.602 | 0.328 | 0.886 | 0.722 | 0.684 | 0.808 | 0.317
15 | EBC-1 | 0.549 | 0.563 | 0.473 | 0.684 | 0.549 | 0.101 | 0.112 | 0.0984 | 0.107 | 0.113 | 0.209 | 0.218 | 0.232 | 0.284 | 0.247 | 0.181 | 0.194 | 0.191 | 0.26 | 0.219
16 | NCI-H1355 | 1.23 | 1.29 | 1.29 | 1.19 | 1.16 | 0.65 | 0.923 | 0.823 | 0.464 | 0.38 | 1.07 | 0.969 | 0.842 | 0.85 | 0.596 | 1.11 | 1 | 1.02 | 0.766 | 0.337
